How the values were obtained:
[1] = MDR1 LLC-PK1 and BCRP MDCKII permeability assay: permeability coefficient (Papp)
Method: (§4) Both LLC-PK1 and MDR1 transfected LLC-PK1 cells were cultured and plated according to manufacturer's recommendations with the exception that the passage media contained only 2% fetal bovine serum to extend passage time out to seven days.
(§5) BCRP transfected MDCKII cells were cultured and plated according to manufacturer's recommendations. Assay conditions included with and without the BCRP-specific inhibitor, K0143, at a concentration of 0.3 μM to ascertain the contribution of BCRP to the efflux value of the test compound.
(§6) Both positive and negative controls were used to assess functionality of P-gp or BCRP efflux in the assays. […] Final organic concentration in the assay was 1%. All dosing solutions contained 10 μM lucifer yellow to monitor LLC-PK1 or MDCKII cell monolayer integrity.
(§7) For the apical to basolateral determination (A to B), 75 μL of the test article in transport buffer were added to the apical side of the individual transwells and 250 μL of basolateral media, without compound or lucifer yellow, were added to each well. For the basolateral to apical determination (B to A), 250 μL of test article in transport buffer were added to each well and 75 μL transport buffer, without compound or lucifer yellow, were added to each transwell. All tests were performed in triplicate, and each compound was tested for both apical to basolateral and basolateral to apical transport. The plates were incubated for 2 hours on a Lab-Line Instruments Titer Orbital Shaker (VWR, West Chester, Pa.) at 50 rpm and 37° C. with 5% CO2. All culture plates were removed from the incubator and 50 μL of media were removed from the apical and basolateral portion of each well and added to 150 μL of 1 μM labetalol in 2:1 acetonitrile (acetonitrile): H2O, v/v.
(§8) These values were accepted when found to be below 2% for apical to basolateral and 5% basolateral to apical flux across the MDR1-transfected LLC-PK1 or BCRP-transfected MDCKII cell monolayers. The plates were sealed and the contents of each well analyzed by LC-MS/MS. The compound concentrations were determined from the ratio of the peak areas of the compound to the internal standard (labetalol) in comparison to the dosing solution.
(§9) The LC-MS/MS system was comprised of an HTS-PAL autosampler (Leap Technologies, Carrboro, N.C.), an HP1200 HPLC (Agilent, Palo Alto, Calif.), and a MDS Sciex 4000 Q Trap system (Applied Biosystems, Foster City, Calif.). […] The total run time, including re-equilibration, for a single injection was 1.2 minutes. Mass spectrometric detection of the analytes was accomplished using the ion spray positive mode.
where Cd, V, t and C0 are the detected concentration (μM), the volume on the dosing side (mL); the incubation time (s) and the initial dosing concentration (μM), respectively. The calculations for Papp were made for each replicate and then averaged.

P-gp (MDR1) = P-gp (MDR1) (Homo sapiens (Human), UniProt P08183); experiment: MDR1 LLC-PK1 permeability assay: efflux ratio; settings: pig, LLC-PK1
Method: as §4, §6, §7, §8, §9
(§10) An efflux ratio is calculated from the mean apical to basolateral (A−B) Papp data and basolateral to apical (B−A) Papp data: Efflux ratio=Papp(B−A)/Papp(A−B)

[2] = target: full-length FLAG-tagged B-Raf(V600E) (Homo sapiens (Human), UniProt P15056, V600E); experiment: BRAF V600E enzyme assay (TR-FRET competitive displacement of fluorescent tracer); type: binding; settings: averaged IC50; 60 min at ambient temperature; 11-point dosing, top dose 10 μM
Chain of full-length FLAG-tagged B-Raf(V600E) (P15056 whole entry V600E): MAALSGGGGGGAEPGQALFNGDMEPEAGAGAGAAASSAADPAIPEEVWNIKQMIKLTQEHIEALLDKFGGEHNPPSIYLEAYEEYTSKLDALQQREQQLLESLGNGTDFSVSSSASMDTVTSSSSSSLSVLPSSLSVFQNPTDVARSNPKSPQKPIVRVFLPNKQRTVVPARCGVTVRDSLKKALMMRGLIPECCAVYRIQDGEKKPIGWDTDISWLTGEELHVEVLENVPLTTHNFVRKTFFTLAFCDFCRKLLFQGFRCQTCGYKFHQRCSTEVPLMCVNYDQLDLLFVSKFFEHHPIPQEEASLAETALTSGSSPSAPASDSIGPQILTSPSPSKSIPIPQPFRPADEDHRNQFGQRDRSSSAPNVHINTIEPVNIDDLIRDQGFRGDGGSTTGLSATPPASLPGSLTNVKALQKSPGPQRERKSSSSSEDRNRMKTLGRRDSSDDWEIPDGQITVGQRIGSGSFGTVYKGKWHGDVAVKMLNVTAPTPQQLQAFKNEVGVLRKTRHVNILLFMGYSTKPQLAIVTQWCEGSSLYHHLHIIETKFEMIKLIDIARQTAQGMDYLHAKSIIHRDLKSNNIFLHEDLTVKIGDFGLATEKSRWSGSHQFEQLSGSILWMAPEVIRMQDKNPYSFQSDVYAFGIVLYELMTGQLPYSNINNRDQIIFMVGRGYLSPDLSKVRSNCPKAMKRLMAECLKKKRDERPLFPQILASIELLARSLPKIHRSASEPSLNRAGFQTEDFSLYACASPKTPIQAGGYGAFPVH
Excerpt: (§1) A competitive displacement assay was configured for B-Raf that monitors the amount of a fluorescently-tagged “tracer” bound to B-Raf via TR-FRET from an anti-tag Eu-labeled antibody also bound to B-Raf.
(§2) [formula] • where: • Xmax Average Uninhibited Controls • Xmin Average Background
(§3) A 4-parameter logistic model was the fit to the POC data for each compound.

[3] = target: N-terminally GST-tagged B-Raf(V600K) (Homo sapiens, UniProt P15056, V600K); experiment: BRAF V600K enzyme assay (TR-FRET competitive displacement of fluorescent tracer); type: binding; settings: averaged IC50; 60 min at ambient temperature; 11-point dosing, top dose 10 μM
Chain of N-terminally GST-tagged B-Raf(V600K) (P15056 2-766 V600K limits assumed): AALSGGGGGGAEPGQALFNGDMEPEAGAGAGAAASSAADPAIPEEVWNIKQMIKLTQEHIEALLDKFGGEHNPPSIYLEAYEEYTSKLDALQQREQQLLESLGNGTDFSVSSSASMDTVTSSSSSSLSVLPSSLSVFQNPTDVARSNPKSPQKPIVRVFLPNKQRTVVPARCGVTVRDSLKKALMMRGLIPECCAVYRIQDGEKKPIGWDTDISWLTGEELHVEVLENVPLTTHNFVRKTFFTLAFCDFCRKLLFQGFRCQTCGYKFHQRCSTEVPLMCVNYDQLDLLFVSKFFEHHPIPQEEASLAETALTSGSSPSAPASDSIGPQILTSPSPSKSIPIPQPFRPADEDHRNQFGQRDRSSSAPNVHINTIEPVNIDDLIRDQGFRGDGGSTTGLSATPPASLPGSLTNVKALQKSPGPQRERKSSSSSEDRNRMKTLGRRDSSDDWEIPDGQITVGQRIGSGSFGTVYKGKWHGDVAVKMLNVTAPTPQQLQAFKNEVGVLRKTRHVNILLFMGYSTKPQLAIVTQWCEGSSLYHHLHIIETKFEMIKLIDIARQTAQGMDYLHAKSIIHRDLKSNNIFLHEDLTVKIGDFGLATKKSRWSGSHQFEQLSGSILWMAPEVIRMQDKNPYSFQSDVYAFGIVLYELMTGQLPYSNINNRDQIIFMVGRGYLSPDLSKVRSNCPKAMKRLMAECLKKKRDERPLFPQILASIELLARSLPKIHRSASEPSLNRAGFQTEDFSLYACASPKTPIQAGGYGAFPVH
Excerpt: as §1, §2, §3

BCRP = BCRP (Homo sapiens (Human), UniProt Q9UNQ0); experiment: BCRP MDCKII permeability assay: efflux ratio; settings: dog
Chain of BCRP (Q9UNQ0 whole entry, species assumed): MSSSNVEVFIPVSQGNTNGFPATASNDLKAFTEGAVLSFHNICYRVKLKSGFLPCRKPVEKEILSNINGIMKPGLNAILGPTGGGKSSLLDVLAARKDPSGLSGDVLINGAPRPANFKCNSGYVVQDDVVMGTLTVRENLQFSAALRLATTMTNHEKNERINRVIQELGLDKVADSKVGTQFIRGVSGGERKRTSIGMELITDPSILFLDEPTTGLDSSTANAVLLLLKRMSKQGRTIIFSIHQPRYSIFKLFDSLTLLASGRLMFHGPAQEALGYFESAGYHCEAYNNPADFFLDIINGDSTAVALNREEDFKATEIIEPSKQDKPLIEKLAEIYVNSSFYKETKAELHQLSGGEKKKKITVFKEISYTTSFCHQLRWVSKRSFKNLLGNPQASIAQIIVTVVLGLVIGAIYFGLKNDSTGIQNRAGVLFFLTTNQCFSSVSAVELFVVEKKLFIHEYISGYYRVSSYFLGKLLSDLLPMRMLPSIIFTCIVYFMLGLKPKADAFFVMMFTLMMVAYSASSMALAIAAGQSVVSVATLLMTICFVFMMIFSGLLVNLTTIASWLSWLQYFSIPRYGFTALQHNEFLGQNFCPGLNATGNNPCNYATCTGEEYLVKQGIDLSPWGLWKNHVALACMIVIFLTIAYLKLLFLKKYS
Method: as §5, §6, §7, §8, §9, §10

[4] = PK (free brain-to-free plasma ratio) (mouse); type: in vivo; settings: mouse; unbound brain-to-unbound plasma concentration ratio; male CD-1 mice; oral gavage 10 mg/kg; sampling 2-24 hours; read-out: B/P ratio (free)
Method: PK (Free Brain-to-Free Plasma Ratio) (Mouse)
The ability of representative compounds to penetrate the BBB in mice was determined by evaluating the unbound brain-to-unbound plasma (also referred to as free brain-to-free plasma) concentration ratio in male CD-1 mice.
Brain samples were stored at −20±5° C. prior to analysis. Concentrations of test compound in mouse brain homogenate were determined by liquid chromatography tandem mass spectrometry (LC-MS/MS) following protein precipitation with acetonitrile. A 12-point calibration curve, ranging from 0.5 to 10,000 ng/mL, was prepared in duplicate. A solution of 400 μg/mL of test compound in dimethyl sulfoxide (DMSO) was serially diluted (3-fold) in 100% DMSO, and then 2.5 μL of each standard solution was added to 100 μL of naïve male CD-1 mice brain homogenate. To mimic the extraction in the standard curve, 2.5 μL of DMSO was added to all test samples. Both calibration and test brain homogenate samples were spiked with 10 μL of an IS (1 μg/mL of a structural analog). Brain homogenate was generated by adding 0.75 mL of 4:1 water:MeOH to each brain sample followed by homogenization for 1 minute with bead beater tubes a 6 m/s using an MP Fast Prep-24®. Proteins were precipitated from 100 μL of brain homogenate sample by the addition of 300 μL of acetonitrile. […] A 100 μL aliquot of each supernatant was transferred via a 550 μL Personal Pipettor (Apricot Designs, Monrovia, Calif.) to 96-well plates and diluted 1:1 with HPLC grade water. The resulting plates were sealed with aluminum for LC-MS/MS analysis.
Brain-to-plasma ratios were calculated using the concentration of compound measured in the brain divided by the concentration of compound measured in the plasma. Brain-to-plasma ratios were always generated from a single animal and time point. Free brain-to-free plasma ratios were calculated by multiplying the brain-to-plasma ratio by the in vitro brain homogenate free fraction divided by the in vitro plasma free fraction using the following equation: (B/P)*(Bfu/Pfu).

Chain of P-gp (MDR1) (P08183 whole entry, species assumed): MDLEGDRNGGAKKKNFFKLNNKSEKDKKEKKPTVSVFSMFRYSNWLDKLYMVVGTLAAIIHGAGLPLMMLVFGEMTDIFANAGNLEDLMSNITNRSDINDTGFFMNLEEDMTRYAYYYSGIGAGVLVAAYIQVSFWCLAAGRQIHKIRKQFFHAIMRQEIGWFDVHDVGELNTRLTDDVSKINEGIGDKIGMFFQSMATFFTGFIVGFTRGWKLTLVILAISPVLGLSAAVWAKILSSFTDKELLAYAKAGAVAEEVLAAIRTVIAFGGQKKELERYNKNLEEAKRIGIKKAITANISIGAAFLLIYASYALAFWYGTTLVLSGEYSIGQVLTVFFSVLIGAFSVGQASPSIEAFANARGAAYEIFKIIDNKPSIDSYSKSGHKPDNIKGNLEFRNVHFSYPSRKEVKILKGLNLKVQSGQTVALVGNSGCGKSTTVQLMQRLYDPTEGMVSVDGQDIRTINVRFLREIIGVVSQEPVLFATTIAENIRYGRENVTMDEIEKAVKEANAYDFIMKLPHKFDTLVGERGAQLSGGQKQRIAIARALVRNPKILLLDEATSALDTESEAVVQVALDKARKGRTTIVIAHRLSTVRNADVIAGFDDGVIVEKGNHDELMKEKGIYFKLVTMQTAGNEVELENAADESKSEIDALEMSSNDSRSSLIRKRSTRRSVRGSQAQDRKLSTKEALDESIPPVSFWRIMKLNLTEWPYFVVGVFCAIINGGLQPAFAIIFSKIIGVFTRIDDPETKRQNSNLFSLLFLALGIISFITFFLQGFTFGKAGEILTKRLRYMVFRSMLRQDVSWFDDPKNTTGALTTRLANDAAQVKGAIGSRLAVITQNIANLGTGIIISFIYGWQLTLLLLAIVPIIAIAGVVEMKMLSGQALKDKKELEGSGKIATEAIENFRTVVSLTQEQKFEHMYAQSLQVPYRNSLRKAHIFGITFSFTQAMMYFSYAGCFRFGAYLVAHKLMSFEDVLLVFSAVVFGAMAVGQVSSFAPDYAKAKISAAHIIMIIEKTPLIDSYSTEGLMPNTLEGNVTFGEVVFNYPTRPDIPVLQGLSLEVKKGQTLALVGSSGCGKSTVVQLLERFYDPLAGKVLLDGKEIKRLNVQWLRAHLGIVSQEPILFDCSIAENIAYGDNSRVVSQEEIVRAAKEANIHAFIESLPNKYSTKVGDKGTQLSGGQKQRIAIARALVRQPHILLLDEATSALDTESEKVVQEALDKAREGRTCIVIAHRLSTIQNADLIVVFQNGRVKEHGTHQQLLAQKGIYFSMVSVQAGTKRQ

SMILES	Papp at 2 h, 1 µM [1] [×10⁻⁶ cm/s]	efflux ratio at 2 h, 1 µM (P-gp (MDR1))	IC50 [2] [nM]	IC50 [3] [nM]	efflux ratio at 2 h, 1 µM (BCRP)	Kp,uu (unbound brain/unbound plasma ratio) [4]
CCCS(=O)(=O)Nc1ccc(F)c(Nc2ccc3ncn(C)c(=O)c3c2C)c1F [Example 1, N-(3-((3,5-dimethyl-4-oxo-3,4-dihydroquinazolin-6-yl)amino)-2,4-difluorophenyl)propane-1-sulfonamide]	34.9	1.68	42.7	8.5	3.4	0.3 to 0.62
Cc1c(Nc2cccc(NS(=O)(=O)CCCF)c2Cl)ccc2ncn(C)c(=O)c12 [Example 4]	34.5	1.14	16.1	8.1	1.85	0.35 to 1.6
CCCS(=O)(=O)Nc1ccc(F)c(Nc2ccc3ncn(C)c(=O)c3c2C)c1Cl [Example 9, N-(2-chloro-3-((3,5-dimethyl-4-oxo-3,4-dihydroquinazolin-6-yl)amino)-4-fluorophenyl)propane-1-sulfonamide]	27.8	1.26	19.7	6.5	1.23	0.76 to 1.04
CCCS(=O)(=O)Nc1cccc(Oc2ccc3ncn(C)c(=O)c3c2C)c1C#N [Example 66, N-{2-Cyano-3-[(3,5-dimethyl-4-oxo-3,4-dihydroquinazolin-6-yl)oxy]phenyl}propane-1-sulfonamide]	23.1	1.7	4.08	–	27.9	–
CCCS(=O)(=O)Nc1cccc(Oc2ccc3ncn(C)c(=O)c3c2C)c1F [Example 68, N-(3-((3,5-dimethyl-4-oxo-3,4-dihydroquinazolin-6-yl)oxy)-2-fluorophenyl)propane-1-sulfonamide]	28.5	1.2	33	–	1.3	–
CCCS(=O)(=O)Nc1ccc(F)c(Oc2ccc3ncn(C)c(=O)c3c2C)c1F [Example 71, N-(3-((3,5-dimethyl-4-oxo-3,4-dihydroquinazolin-6-yl)oxy)-2,4-difluorophenyl)propane-1-sulfonamide]	25.1	2.4	16.4	–	0.86	–
CCCS(=O)(=O)Nc1cc(F)c(F)c(Oc2ccc3ncn(C)c(=O)c3c2C)c1F [Example 72, N-(3-((3,5-dimethyl-4-oxo-3,4-dihydroquinazolin-6-yl)oxy)-2,4,5-trifluorophenyl)propane-1-sulfonamide]	25.6	1.86	7.7	–	1.81	–
CCCS(=O)(=O)Nc1cc(C)cc(Oc2ccc3ncn(C)c(=O)c3c2C)c1F [Example 75, N-(3-((3,5-dimethyl-4-oxo-3,4-dihydroquinazolin-6-yl)oxy)-2-fluoro-5-methylphenyl)propane-1-sulfonamide]	21.5	1.57	74.8	–	0.73	–
CCCS(=O)(=O)Nc1cc(F)cc(Oc2ccc3ncn(C)c(=O)c3c2C)c1F [Example 76, N-(3-((3,5-dimethyl-4-oxo-3,4-dihydroquinazolin-6-yl)oxy)-2,5-difluorophenyl)propane-1-sulfonamide]	31.8	1.45	5.1	–	1.26	–
Cc1c(Oc2cc(F)cc(NS(=O)(=O)CCCF)c2F)ccc2ncn(C)c(=O)c12 [Example 77, N-(3-((3,5-dimethyl-4-oxo-3,4-dihydroquinazolin-6-yl)oxy)-2,5-difluorophenyl)-3-fluoropropane-1-sulfonamide]	25.6	1.91	4.25	–	4.24	–
CCCS(=O)(=O)Nc1cccc(Oc2ccc3ncn(C)c(=O)c3c2C)c1Cl [Example 78, N-(2-chloro-3-((3,5-dimethyl-4-oxo-3,4-dihydroquinazolin-6-yl)oxy)phenyl)propane-1-sulfonamide]	29	1.16	10.8	–	0.96	–
Cc1c(Oc2cccc(NS(=O)(=O)CCCF)c2Cl)ccc2ncn(C)c(=O)c12 [Example 79, N-(2-chloro-3-((3,5-dimethyl-4-oxo-3,4-dihydroquinazolin-6-yl)oxy)phenyl)-3-fluoropropane-1-sulfonamide]	23.1	2.14	8.55	–	1.06	–
Cc1c(Oc2cccc(NS(=O)(=O)CCCF)c2F)ccc2ncn(C)c(=O)c12 [Example 80, N-(3-((3,5-dimethyl-4-oxo-3,4-dihydroquinazolin-6-yl)oxy)-2-fluorophenyl)-3-fluoropropane-1-sulfonamide]	42.5	1.3	20.8	–	2.03	–
Cn1cnc2ccc(Nc3c(F)ccc(NS(=O)(=O)CCCF)c3Cl)c(Cl)c2c1=O [WO 2012/118492 Ex. 37, reference compound]	–	1.9	–	–	8.6	0.12 to 0.15
Cn1cnc2ccc(Nc3c(F)ccc(NS(=O)(=O)CCCF)c3Cl)cc2c1=O [WO 2012/118492 Example 34, reference compound]	–	8.89	–	–	7.68	0.08 to 0.14

The remaining compounds from weak to strong by IC50 [2], led by results:

Papp at 2 h, 1 µM [1] [×10⁻⁶ cm/s]	efflux ratio at 2 h, 1 µM (P-gp (MDR1))	IC50 [2] [nM]	IC50 [3] [nM]	efflux ratio at 2 h, 1 µM (BCRP)	Kp,uu (unbound brain/unbound plasma ratio) [4]	SMILES
28.4	1.13	3.55	–	0.92	–	CCCS(=O)(=O)Nc1cc(F)cc(Oc2ccc3ncn(C)c(=O)c3c2C)c1Cl [Example 74, N-(2-chloro-3-((3,5-dimethyl-4-oxo-3,4-dihydroquinazolin-6-yl)oxy)-5-fluorophenyl)propane-1-sulfonamide]
19.1	1.73	2.55	–	1.17	–	CCCS(=O)(=O)Nc1cc(Cl)cc(Oc2ccc3ncn(C)c(=O)c3c2C)c1F [Example 70, N-(5-chloro-3-((3,5-dimethyl-4-oxo-3,4-dihydroquinazolin-6-yl)oxy)-2-fluorophenyl) propane-1-sulfonamide]
27.6	1.8	2	2.8	1.8	0.4 to 0.49	Cc1c(Oc2c(F)ccc(NS(=O)(=O)CCCF)c2Cl)ccc2ncn(C)c(=O)c12 [Example 67, N-{2-chloro-3-[(3,5-dimethyl-4-oxo-3,4-dihydroquinazolin-6-yl)oxy]-4-fluorophenyl}-3-fluoropropane-1-sulfonamide]
47.5	0.93	1.55	–	0.3	–	CCCS(=O)(=O)Nc1cc(F)c(F)c(Oc2ccc3ncn(C)c(=O)c3c2C)c1Cl [Example 73, N-(2-chloro-3-((3,5-dimethyl-4-oxo-3,4-dihydroquinazolin-6-yl)oxy)-4,5-difluorophenyl)propane-1-sulfonamide]
26.3	1.3	1.3	2.2	1.64	0.87 to 1.19	CCCS(=O)(=O)Nc1cc(F)c(F)c(Nc2ccc3ncn(C)c(=O)c3c2C)c1Cl [Example 7, N-(2-chloro-3-((3,5-dimethyl-4-oxo-3,4-dihydroquinazolin-6-yl)amino)-4,5-difluorophenyl)propane-1-sulfonamide]
24.4	4.1	0.46	–	23.8	–	CCCS(=O)(=O)Nc1ccc(F)c(Oc2ccc3ncn(C)c(=O)c3c2C)c1C#N [Example 69, N-(2-cyano-3-((3,5-dimethyl-4-oxo-3,4-dihydroquinazolin-6-yl)oxy)-4-fluorophenyl)propane-1-sulfonamide]

Reference: patent US11414404B2, “Compounds for the treatment of BRAF-associated diseases and disorders” (Array BioPharma Inc., priority 2019, dated 2022)
